Measured values taken from PubChem BioAssay AID1963966 (Molecular Pharmacology Branch, DTP, NCI, 2024).

Test system: 935938-334-R-J1-PDC spheroids with HUVEC/MSC, viability
Test: Anticancer human tumor 935938-334-R-J1-PDC patient-derived small intestine adenocarcinoma cell line growth inhibition [PI3K]
Details: for IC50: curve of first compound; for viability, T/C: stronger effect = lower value; active = viability on the fitted dose curve at most 10% of control; inactive = the rest
From the text: Combinatorial screen of targeted agents with the PI3K inhibitors inavolisib, alpelisib, duvelisib, and copanlisib in multi-cell type tumor spheroids
A high-throughput screen of multi-cell type tumor spheroids was designed to identify active combinations of targeted small molecules and PI3K pathway inhibitors. Complex spheroids include a stromal component modeled by human endothelial cells (HUVEC) and fibroblasts modeled by human mesenchymal stem cells (MSCs). The concentration ranges selected for each drug and investigational agent were based upon clinically achievable concentrations if the clinical Cmax of the agent was known.
Compounds. The drugs and investigational agents: inavolisib (NSC800729), alpelisib (NSC765974), duvelisib (NSC772469), copanlisib (NSC816437), ipatasertib (NSC767898), afuresertib (NSC778305), talazoparib (NSC767125), sapanisertib (NSC764658), selumetinib (NSC741078), tovorafenib (DAY101, NSC766906), vemurafenib (NSC761431), ravoxertinib (NSC781343), sotorasib (NSC818433), MRTX1133 (NSC 836407), abemaciclib (NSC 768073), palbociclib (NSC758247), venetoclax (NSC 766270), SY5609 (NSC837396), enzalutamide (NSC755605), and darolutamide (NSC825331), were obtained from the National Cancer Institute (NCI) Developmental Therapeutics Program Chemical Repository. The FDA-approved anticancer drug set is available from the NCI Developmental Therapeutics Program. […] The stock solutions were prepared in dimethyl sulfoxide (DMSO, Sigma-Aldrich, St. Louis, MO, cat. D2650) at 800-fold the tested concentration and stored at -70 degrees C prior to their use. All drugs and investigational agents were tested over a range starting from a high concentration at or near the clinical Cmax and decreasing in half-log increments. If the clinical Cmax for an agent had not been determined, the highest concentration tested was 10 microM.
Cell Culture. All cells were maintained in an incubator at 37 degrees C and 5% CO2 with 95% humidity. The PDC lines were cultured according to standard operating procedures established by the NCI PDMR (https://pdmr.cancer.gov/sops/default.htm). All PDCs were thawed and cultured in Matrigel-coated flasks prepared with a working solution of 1X Ham's F-12 nutrient mix, without supplementation (Invitrogen, Waltham, MA, cat. 11765054), 100 U/mL penicillin-streptomycin (Invitrogen, cat. 15140122), and 2.5% Matrigel (Corning Inc., Corning, NY, cat. 354248) for the first three passages. The 354836-022-R-J1-PDC, 475296-252-R-J1-PDC, and 997726-040-R-J2-PDC lines were cultured in 6A media, which includes advanced DMEM/F-12 (Thermo Fisher Scientific, cat. 12634028), 10 mM HEPES (Thermo Fisher Scientific, cat. 15630080), 1X GlutaMAX supplement (Thermo Fisher Scientific, cat. 35050061), 0.1 mg/mL primocin (InvivoGen, San Diego, CA, cat. ant-pm-2), 10% defined fetal bovine serum, heat inactivated (HyClone Laboratories Inc., Logan, UT, cat. SH30070.03HI), 50% L-WRN conditioned media (ATCC, cat. CRL-3276), 1.25 mM N-Acetyl-L-cysteine (Sigma-Aldrich, cat. A9165), 10 mM nicotinamide (Sigma-Aldrich, cat. N0636), 1X B-27 supplement (Thermo Fisher Scientific, cat. 17504044), 1X N-2 supplement (Thermo Fisher Scientific, cat. 17502048), and 10 microM Y-27632 dihydrochloride (Tocris Bioscience, Bristol, United Kingdom, cat. 1254). The 624824-186-R-J2-PDC line was cultured in 6C/Colon 1B media, which includes all 6A media components plus 50 ng/mL human EGF recombinant protein (Thermo Fisher Scientific, cat. PHG0311). […]
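Also: compound exposure lasted seven days before viability was read.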
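For viability, T/C in this document: percent of vehicle DMSO treated spheroid viability so 100% = untreated.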

CC1(C)CCC(CN2CCN(c3ccc(C(=O)NS(=O)(=O)c4ccc(NCC5CCOCC5)c([N+](=O)[O-])c4)c(Oc4cnc5[nH]ccc5c4)c3)CC2)=C(c2ccc(Cl)cc2)C1 + CC(Nc1ccc2c(c1)OCCn1cc(N3C(=O)OCC3C(F)F)nc1-2)C(N)=O
6 µM: IC50 (second compound 0.01 µM) | IC50 (second compound 0.1 µM)
6.27 µM: IC50 (second compound 0.00316 µM)
5.04 µM: IC50 (second compound 0.316 µM)
3.21 µM: IC50 (second compound 1 µM)
5.41 µM: IC50 (second compound 0.0316 µM)
inactive: viability, T/C (second compound 0.00316 µM, first compound 0.0316 µM) 85.9% | viability, T/C (second compound 0.00316 µM, first compound 0.1 µM) 78.6% | viability, T/C (second compound 0.00316 µM, first compound 0.316 µM) 106% | viability, T/C (second compound 0.00316 µM, first compound 1 µM) 115% | viability, T/C (second compound 0.00316 µM, first compound 3.16 µM) 90.3% | viability, T/C (second compound 0.00316 µM, first compound 10 µM) 22.5% | viability, T/C (second compound 0.01 µM, first compound 0.0316 µM) 88.7% | viability, T/C (second compound 0.01 µM, first compound 0.1 µM) 95.1% | viability, T/C (second compound 0.01 µM, first compound 0.316 µM) 120% | viability, T/C (second compound 0.01 µM, first compound 1 µM) 83.1% | viability, T/C (second compound 0.01 µM, first compound 3.16 µM) 80.8% | viability, T/C (second compound 0.01 µM, first compound 10 µM) 26.8% | viability, T/C (second compound 0.0316 µM, first compound 0.0316 µM) 90.5% | viability, T/C (second compound 0.0316 µM, first compound 0.1 µM) 78.8% | viability, T/C (second compound 0.0316 µM, first compound 0.316 µM) 76.2% | viability, T/C (second compound 0.0316 µM, first compound 1 µM) 103% | viability, T/C (second compound 0.0316 µM, first compound 3.16 µM) 74.4% | viability, T/C (second compound 0.0316 µM, first compound 10 µM) 22.1% | viability, T/C (second compound 0.1 µM, first compound 0.0316 µM) 88.5% | viability, T/C (second compound 0.1 µM, first compound 0.1 µM) 90.9% | viability, T/C (second compound 0.1 µM, first compound 0.316 µM) 84.5% | viability, T/C (second compound 0.1 µM, first compound 1 µM) 82% | viability, T/C (second compound 0.1 µM, first compound 3.16 µM) 100% | viability, T/C (second compound 0.1 µM, first compound 10 µM) 18.6% | viability, T/C (second compound 0.316 µM, first compound 0.0316 µM) 69.6% | viability, T/C (second compound 0.316 µM, first compound 0.1 µM) 71.3% | viability, T/C (second compound 0.316 µM, first compound 0.316 µM) 76.3% | viability, T/C (second compound 0.316 µM, first compound 1 µM) 68.8% | viability, T/C (second compound 0.316 µM, first compound 3.16 µM) 72.7% | viability, T/C (second compound 0.316 µM, first compound 10 µM) 18.7% | viability, T/C (second compound 1 µM, first compound 0.0316 µM) 62.6% | viability, T/C (second compound 1 µM, first compound 0.1 µM) 59.7% | viability, T/C (second compound 1 µM, first compound 0.316 µM) 57% | viability, T/C (second compound 1 µM, first compound 1 µM) 65.2% | viability, T/C (second compound 1 µM, first compound 3.16 µM) 47.6% | viability, T/C (second compound 1 µM, first compound 10 µM) 20.3%
